One assay concerns the target T1, HiBit-BRM fusion protein (Homo sapiens, UniProt P51531).
T1 construct: expressed in transfected cells
Put plainly: HiBiT-BRM cell-based degradation assay (Nano-Glo HiBiT Lytic Detection, 24 h). The settings on record: HeLa cells expressing HiBiT-BRM; for DC50: read-out: BRM HiBit Degradation IC50; for BRM HiBit Degradation Maximum measured: top dose 30 μM. Put shortly:
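Luminescence from reconstituted NanoBiT luciferase in lysed HeLa HiBiT-BRM cells served as the measure of remaining BRM after 24 h treatment. Compounds were tested from 30 μM final downward in 3-fold steps. DMSO and 2 μM of a standard BRM/BRG1 degrader defined the scale limits.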
(In general: The HiBiT peptide binds its large partner to form an active luciferase.)

Assay [1] has as its target T2, HiBit-BRG1 fusion protein (Homo sapiens, UniProt P51532).
T2 construct: expressed in transfected cells
Put plainly: HiBiT-BRG1 cell-based degradation assay (Nano-Glo HiBiT Lytic Detection, 24 h). Conditions: HeLa cells expressing HiBit-BRG1 and LgBit; for DC50: read-out: BRG1 HiBit Degradation IC50; for Dmax: HeLa, top dose 30 μM, read-out: BRG1 HiBit Degradation Maximum measured. In outline: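 Stable HeLa line expressing HiBiT-BRG1 and LgBiT, seeded at 5000 cells/well; luminescence read after lytic Nano-Glo HiBiT reagent and 10 min shaking at RT. % degradation normalised between DMSO (high control) and 2 μM reference BRM/BRG1 degrader (low control).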

Where only a bound is given, the exact number is not on record here.

Consider 13 molecules from patent US12662479B2 (Foghorn Therapeutics Inc., priority 2020, dated 2026).

T2 sequence (P51532 whole entry, the tested form may be a part): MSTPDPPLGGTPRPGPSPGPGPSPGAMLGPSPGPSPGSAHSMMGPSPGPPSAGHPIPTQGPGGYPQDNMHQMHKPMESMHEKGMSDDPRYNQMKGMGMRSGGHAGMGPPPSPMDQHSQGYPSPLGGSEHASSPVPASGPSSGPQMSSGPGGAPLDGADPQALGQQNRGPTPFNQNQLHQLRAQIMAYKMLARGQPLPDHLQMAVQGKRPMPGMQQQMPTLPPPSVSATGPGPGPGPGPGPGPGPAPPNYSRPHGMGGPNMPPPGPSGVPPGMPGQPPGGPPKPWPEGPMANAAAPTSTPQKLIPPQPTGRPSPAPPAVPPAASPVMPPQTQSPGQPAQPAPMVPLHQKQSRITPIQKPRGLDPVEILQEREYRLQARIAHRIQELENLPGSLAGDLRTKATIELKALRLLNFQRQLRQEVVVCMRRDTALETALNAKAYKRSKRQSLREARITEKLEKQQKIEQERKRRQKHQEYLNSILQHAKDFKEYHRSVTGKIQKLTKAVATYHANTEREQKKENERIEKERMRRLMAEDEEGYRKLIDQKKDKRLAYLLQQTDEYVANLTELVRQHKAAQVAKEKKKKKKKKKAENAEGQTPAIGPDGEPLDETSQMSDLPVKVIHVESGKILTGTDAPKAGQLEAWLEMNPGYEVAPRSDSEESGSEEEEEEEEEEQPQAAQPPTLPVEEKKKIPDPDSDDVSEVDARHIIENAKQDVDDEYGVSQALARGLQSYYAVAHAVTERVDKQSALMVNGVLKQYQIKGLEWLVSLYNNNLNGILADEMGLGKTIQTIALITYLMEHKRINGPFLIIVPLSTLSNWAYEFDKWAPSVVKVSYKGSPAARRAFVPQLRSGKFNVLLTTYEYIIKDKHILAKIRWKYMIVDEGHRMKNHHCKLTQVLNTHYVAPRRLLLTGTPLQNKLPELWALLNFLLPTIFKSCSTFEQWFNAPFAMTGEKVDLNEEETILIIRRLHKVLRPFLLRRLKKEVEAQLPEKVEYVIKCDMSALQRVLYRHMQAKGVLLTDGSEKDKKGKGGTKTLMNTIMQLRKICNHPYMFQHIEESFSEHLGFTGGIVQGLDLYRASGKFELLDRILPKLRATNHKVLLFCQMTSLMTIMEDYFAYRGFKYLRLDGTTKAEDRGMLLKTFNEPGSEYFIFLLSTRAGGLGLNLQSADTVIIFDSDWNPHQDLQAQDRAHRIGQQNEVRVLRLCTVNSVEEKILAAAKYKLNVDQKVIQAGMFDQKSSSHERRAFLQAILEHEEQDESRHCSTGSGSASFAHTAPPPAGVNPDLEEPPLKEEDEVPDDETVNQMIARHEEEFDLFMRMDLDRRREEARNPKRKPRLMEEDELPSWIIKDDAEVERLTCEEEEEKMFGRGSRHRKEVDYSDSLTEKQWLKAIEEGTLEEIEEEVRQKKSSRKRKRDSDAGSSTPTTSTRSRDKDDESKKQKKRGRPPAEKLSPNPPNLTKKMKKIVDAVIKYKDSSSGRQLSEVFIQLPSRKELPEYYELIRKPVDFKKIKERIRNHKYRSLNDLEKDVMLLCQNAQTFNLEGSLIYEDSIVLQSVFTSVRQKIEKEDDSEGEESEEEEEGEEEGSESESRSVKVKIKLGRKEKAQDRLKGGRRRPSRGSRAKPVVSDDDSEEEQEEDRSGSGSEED
T1 sequence (P51531 whole entry, the tested form may be a part): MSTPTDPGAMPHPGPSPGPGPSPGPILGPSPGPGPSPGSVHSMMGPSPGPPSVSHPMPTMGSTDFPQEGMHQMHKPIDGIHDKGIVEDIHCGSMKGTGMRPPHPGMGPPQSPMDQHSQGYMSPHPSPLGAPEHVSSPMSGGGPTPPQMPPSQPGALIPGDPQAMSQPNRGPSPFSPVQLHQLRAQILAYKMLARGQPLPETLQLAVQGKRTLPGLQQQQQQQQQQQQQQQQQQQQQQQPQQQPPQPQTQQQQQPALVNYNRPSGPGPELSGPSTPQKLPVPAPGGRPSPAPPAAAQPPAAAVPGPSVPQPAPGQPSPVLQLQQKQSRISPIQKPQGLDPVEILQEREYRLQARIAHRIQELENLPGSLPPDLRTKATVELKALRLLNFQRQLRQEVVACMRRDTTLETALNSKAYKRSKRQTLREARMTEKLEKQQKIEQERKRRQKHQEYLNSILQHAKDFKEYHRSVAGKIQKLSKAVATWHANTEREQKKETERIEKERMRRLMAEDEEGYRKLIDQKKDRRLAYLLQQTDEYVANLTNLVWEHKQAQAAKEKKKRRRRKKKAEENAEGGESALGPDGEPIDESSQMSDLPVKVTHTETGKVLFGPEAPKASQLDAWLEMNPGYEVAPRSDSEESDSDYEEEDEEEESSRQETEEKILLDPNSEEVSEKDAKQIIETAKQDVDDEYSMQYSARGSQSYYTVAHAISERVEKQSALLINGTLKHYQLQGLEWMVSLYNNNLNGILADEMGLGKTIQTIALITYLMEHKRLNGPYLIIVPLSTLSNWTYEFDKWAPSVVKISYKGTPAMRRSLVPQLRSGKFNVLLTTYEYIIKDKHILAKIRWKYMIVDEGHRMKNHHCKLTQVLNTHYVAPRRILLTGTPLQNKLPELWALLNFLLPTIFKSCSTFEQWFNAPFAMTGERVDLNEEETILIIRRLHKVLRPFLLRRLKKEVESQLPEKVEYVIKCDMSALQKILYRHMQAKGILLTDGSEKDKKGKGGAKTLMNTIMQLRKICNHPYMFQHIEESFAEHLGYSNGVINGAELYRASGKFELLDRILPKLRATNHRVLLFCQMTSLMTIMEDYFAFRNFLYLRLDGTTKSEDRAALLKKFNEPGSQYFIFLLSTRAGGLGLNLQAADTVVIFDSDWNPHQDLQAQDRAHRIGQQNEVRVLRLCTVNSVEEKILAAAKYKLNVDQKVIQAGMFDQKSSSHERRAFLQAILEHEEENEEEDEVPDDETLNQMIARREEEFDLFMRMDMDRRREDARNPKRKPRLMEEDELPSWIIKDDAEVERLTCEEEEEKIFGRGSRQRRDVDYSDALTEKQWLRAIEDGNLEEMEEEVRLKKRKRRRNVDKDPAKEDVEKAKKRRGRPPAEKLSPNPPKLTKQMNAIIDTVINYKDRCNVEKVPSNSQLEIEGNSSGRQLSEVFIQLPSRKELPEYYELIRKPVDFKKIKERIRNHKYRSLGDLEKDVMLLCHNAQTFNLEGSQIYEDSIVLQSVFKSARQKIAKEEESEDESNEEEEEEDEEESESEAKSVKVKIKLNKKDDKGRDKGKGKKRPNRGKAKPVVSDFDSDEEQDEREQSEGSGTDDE

Consider `CS(=O)(=O)n1ccc(C(=O)N[C@@H](COCc2ccc(CNC(=O)CCCOc3cccc4c3C(=O)N(C3CCC(=O)NC3=O)C4=O)cc2)C(=O)Nc2nc(-c3ccccc3)cs2)c1` (stereo partly drawn) [Compound 178, 4-[[2-(2,6-dioxopiperidin-3-yl)-1,3-dioxoisoindol-4-yl]oxy]-N-[(4-[[(2S)-2-[(1-methanesulfonylpyrrol-3-yl)formamido]-2-[(4-phenyl-1,3-thiazol-2-yl)carbamoyl]ethoxy]methyl]phenyl)methyl]butanamide], for which, on HiBit-BRM fusion protein, the DC50 was more than 10 µM and the “BRM HiBit Degradation Maximum measured” value is “C (‘C’ = Maximum degradation <50%)”. For the same molecule, in assay [1], the DC50 was more than 10 µM and the Dmax was less than 50%.
In the case of `CS(=O)(=O)n1ccc(C(=O)N[C@@H](COCc2ccc(CNC(=O)CCCCCCOc3cccc4c3C(=O)N(C3CCC(=O)NC3=O)C4=O)cc2)C(=O)Nc2nc(-c3ccccc3)cs2)c1` (stereo partly drawn) [Compound 179, 7-[[2-(2,6-dioxopiperidin-3-yl)-1,3-dioxoisoindol-4-yl]oxy]-N-[(4-[[(2S)-2-[(1-methanesulfonylpyrrol-3-yl)formamido]-2-[(4-phenyl-1,3-thiazol-2-yl)carbamoyl]ethoxy]methyl]phenyl)methyl]heptanamide], at HiBit-BRM fusion protein, the DC50 was more than 10 µM and the “BRM HiBit Degradation Maximum measured” value was “C (‘C’ = Maximum degradation <50%)”. In assay [1], the DC50 was more than 10 µM and the Dmax was less than 50%.
Regarding `CS(=O)(=O)n1ccc(C(=O)N[C@@H](COCc2ccc(CNC(=O)CCCCCCCCCCNc3cccc4c3C(=O)N(C3CCC(=O)NC3=O)C4=O)cc2)C(=O)Nc2nc(-c3ccccc3)cs2)c1` (stereo partly drawn) [Compound 180, 11-[[2-(2,6-dioxopiperidin-3-yl)-1,3-dioxoisoindol-4-yl]amino]-N-[(4-[[(2S)-2-[(1-methanesulfonylpyrrol-3-yl)formamido]-2-[(4-phenyl-1,3-thiazol-2-yl)carbamoyl]ethoxy]methyl]phenyl)methyl]undecanamide], on HiBit-BRM fusion protein, the DC50 is 0.1 to 1 µM; the “BRM HiBit Degradation Maximum measured” value is “B (‘B’ = Maximum degradation ≥50% and ≤75%)”. In assay [1], the DC50 was 0.1 to 1 µM and the Dmax lay in the range of 50 to 75%.
With `CS(=O)(=O)n1ccc(C(=O)N[C@@H](COCc2ccc(CNC(=O)CCOCCOCCNc3cccc4c3C(=O)N(C3CCC(=O)NC3=O)C4=O)cc2)C(=O)Nc2nc(-c3ccccc3)cs2)c1` (stereo partly shown) [Compound 181], on HiBit-BRM fusion protein, the DC50 is 0.1 to 1 µM; the “BRM HiBit Degradation Maximum measured” value was “B (‘B’ = Maximum degradation ≥50% and ≤75%)”. In assay [1], the DC50 fell in the range of 0.1 to 1 µM and the Dmax lay within 50 to 75%.
On to `CS(=O)(=O)n1ccc(C(=O)N[C@@H](COCc2ccc(CNC(=O)CCOCCOCCOc3cccc4c3C(=O)N(C3CCC(=O)NC3=O)C4=O)cc2)C(=O)Nc2nc(-c3ccccc3)cs2)c1` (stereo partly drawn) [Compound 182, 3-[2-(2-[[2-(2,6-dioxopiperidin-3-yl)-1,3-dioxoisoindol-4-yl]oxy]ethoxy)ethoxy]-N-[(4-[[(2S)-2-[(1-methanesulfonylpyrrol-3-yl)formamido]-2-[(4-phenyl-1,3-thiazol-2-yl)carbamoyl]ethoxy]methyl]phenyl)methyl]propanamide], for which, on HiBit-BRM fusion protein, the DC50 is more than 10 µM and the “BRM HiBit Degradation Maximum measured” value is on record as “C (‘C’ = Maximum degradation <50%)”. Further, in assay [1], the DC50 was more than 10 µM and the Dmax was less than 50%.
As to `CS(=O)(=O)n1ccc(C(=O)N[C@@H](CCOCCCC(=O)N2CCN(CC3CN(c4ccc5c(c4)C(=O)N(C4CCC(=O)NC4=O)C5=O)C3)CC2)C(=O)Nc2nc(-c3ccccc3)cs2)c1` (stereo partly drawn) [Compound 183, (2S)-4-[4-[4-([1-[2-(2,6-dioxopiperidin-3-yl)-1,3-dioxoisoindol-5-yl]azetidin-3-yl]methyl)piperazin-1-yl]-4-oxobutoxy]-2-[(1-methanesulfonylpyrrol-3-yl)formamido]-N-(4-phenyl-1,3-thiazol-2-yl)butanamide; formic acid], at HiBit-BRM fusion protein, the DC50 was more than 10 µM and the “BRM HiBit Degradation Maximum measured” value was “C (‘C’ = Maximum degradation <50%)”. Further, in assay [1], the DC50 was more than 10 µM and the Dmax is less than 50%.
For the molecule `COC(=O)N1CCCC(c2csc(NC(=O)[C@H](CCCCNC(=O)CCCCCCCCCCNc3cccc4c3C(=O)N(C3CCC(=O)NC3=O)C4=O)NC(=O)c3ccn(C(C)(C)C)c3)n2)C1` (stereo partly drawn) [Compound 184, methyl 3-[2-[(2S)-2-[(1-tert-butylpyrrol-3-yl)formamido]-6-(11-[[2-(2,6-dioxopiperidin-3-yl)-1,3-dioxoisoindol-4-yl]amino]undecanamido)hexanamido]-1,3-thiazol-4-yl]piperidine-1-carboxylate], on HiBit-BRM fusion protein, the DC50 is more than 10 µM and the “BRM HiBit Degradation Maximum measured” value was “C (‘C’ = Maximum degradation <50%)”. In assay [1], the DC50 is more than 10 µM and the Dmax was less than 50%.
`CS(=O)(=O)n1ccc(C(=O)N[C@@H](COCCCC(=O)NCCNc2ccc3c(c2)C(=O)N(C2CCC(=O)NC2=O)C3=O)C(=O)Nc2nc(-c3ccccc3)cs2)c1` (stereo partly drawn) [Compound 185, N-((2S)-3-(4-((2-((2-(2,6-dioxopiperidin-3-yl)-1,3-dioxoisoindolin-5-yl)amino)ethyl)amino)-4-oxobutoxy)-1-oxo-1-((4-phenylthiazol-2-yl)amino)propan-2-yl)-1-(methylsulfonyl)-1H-pyrrole-3-carboxamide]: at HiBit-BRM fusion protein, the DC50 was more than 10 µM and the “BRM HiBit Degradation Maximum measured” value is listed as “C (‘C’ = Maximum degradation <50%)”. For the same molecule, in assay [1], the DC50 is more than 10 µM and the Dmax was less than 50%.
Regarding `CS(=O)(=O)n1ccc(C(=O)N[C@@H](COCCCC(=O)NCCCCCCCCNc2cccc3c2C(=O)N(C2CCC(=O)NC2=O)C3=O)C(=O)Nc2nc(-c3ccccc3)cs2)c1` (stereo partly drawn) [Compound 186, N-(8-[[2-(2,6-dioxopiperidin-3-yl)-1,3-dioxoisoindol-4-yl]amino]octyl)-4-[(2S)-2-[(1-methanesulfonylpyrrol-3-yl)formamido]-2-[(4-phenyl-1,3-thiazol-2-yl)carbamoyl]ethoxy]butanamide], on HiBit-BRM fusion protein, the DC50 is more than 10 µM and the “BRM HiBit Degradation Maximum measured” value is “C (‘C’ = Maximum degradation <50%)”. Also, in assay [1], the DC50 is more than 10 µM and the Dmax is less than 50%.
Take `CS(=O)(=O)n1ccc(C(=O)N[C@@H](COCCCC(=O)NCCCCCNc2ccc3c(c2)C(=O)N(C2CCC(=O)NC2=O)C3=O)C(=O)Nc2nc(-c3ccccc3)cs2)c1` (stereo partly drawn) [Compound 187, N-(5-[[2-(2,6-dioxopiperidin-3-yl)-1,3-dioxoisoindol-5-yl]amino]pentyl)-4-[(2S)-2-[(1-methanesulfonylpyrrol-3-yl)formamido]-2-[(4-phenyl-1,3-thiazol-2-yl)carbamoyl]ethoxy]butanamide]: at HiBit-BRM fusion protein, the DC50 was more than 10 µM and the “BRM HiBit Degradation Maximum measured” value was “C (‘C’ = Maximum degradation <50%)”. Also, in assay [1], the DC50 was more than 10 µM and the Dmax was less than 50%.
In the case of `Cc1ncsc1-c1ccc(CNC(=O)[C@@H]2C[C@@H](O)CN2C(=O)[C@@H](NC(=O)COCCOCCNC(=O)c2ccc(COC[C@H](NC(=O)c3ccn(S(C)(=O)=O)c3)C(=O)Nc3nc(-c4ccccc4)cs3)cc2)C(C)(C)C)cc1` [Compound 188, (2S,4R)-4-hydroxy-1-[(2S)-2-[2-(2-[2-[(4-[[(2S)-2-[(1-methanesulfonylpyrrol-3-yl)formamido]-2-[(4-phenyl-1,3-thiazol-2-yl)carbamoyl]ethoxy]methyl]phenyl)formamido]ethoxy]ethoxy)acetamido]-3,3-dimethylbutanoyl]-N-[[4-(4-methyl-1,3-thiazol-5-yl)phenyl]methyl]pyrrolidine-2-carboxamide], on HiBit-BRM fusion protein, the DC50 was more than 10 µM and the “BRM HiBit Degradation Maximum measured” value is listed as “C (‘C’ = Maximum degradation <50%)”. Besides, in assay [1], the DC50 is 1 to 10 µM and the Dmax lay in the range of 50 to 75%.
On the same counts, the results for `Cc1ncsc1-c1ccc(CNC(=O)[C@@H]2C[C@@H](O)CN2C(=O)[C@@H](NC(=O)COCCOCCOCCNC(=O)c2ccc(COC[C@H](NC(=O)c3ccn(S(C)(=O)=O)c3)C(=O)Nc3nc(-c4ccccc4)cs3)cc2)C(C)(C)C)cc1` [Compound 189, (2S,4R)-4-hydroxy-1-[(2S)-2-[2-[2-(2-[2-[(4-[[(2S)-2-[(1-methanesulfonylpyrrol-3-yl)formamido]-2-[(4-phenyl-1,3-thiazol-2-yl)carbamoyl]ethoxy]methyl]phenyl)formamido]ethoxy]ethoxy)ethoxy]acetamido]-3,3-dimethylbutanoyl]-N-[[4-(4-methyl-1,3-thiazol-5-yl)phenyl]methyl]pyrrolidine-2-carboxamide] are more than 10 µM, “C (‘C’ = Maximum degradation <50%)”, more than 10 µM and less than 50%.
On the same counts, the results for `CS(=O)(=O)n1ccc(C(=O)N[C@@H](COCc2ccc(C(=O)NCCS(=O)(=O)CCNc3cccc4c3C(=O)N(C3CCC(=O)NC3=O)C4=O)cc2)C(=O)Nc2nc(-c3ccccc3)cs2)c1` (stereo partly drawn) [Compound 190, N-[2-(2-[[2-(2,6-dioxopiperidin-3-yl)-1,3-dioxoisoindol-4-yl]amino]ethanesulfonyl)ethyl]-4-[[(2S)-2-[(1-methanesulfonylpyrrol-3-yl)formamido]-2-[(4-phenyl-1,3-thiazol-2-yl)carbamoyl]ethoxy]methyl]benzamide] are more than 10 µM, “C (‘C’ = Maximum degradation <50%)”, more than 10 µM and less than 50%.
